Experiments:
[1] = Sensory expert panel time-intensity evaluation (sweetness intensity over time); format: in vivo, human
Experimental: The samples were evaluated by a panel of (˜15) prescreened, highly-sensitive, trained and calibrated expert tasters: The parameters quantified included Sweetness profile over time (Sweetness intensity with time after intake), Linger (Area under the sweetness intensity vs. time curve (AUC) from 60 to 150 or to 300 seconds), Linger time (Delta time from initial- to zero sweetness), Ratio of the Intensity at 60 seconds to the maximal intensity, Linger T50: Time to reach 50% of the maximal sweetness, Linger T10: Time to reach 10% of the maximal sweetness. The qualitative similarity of the taste to that of sugar was also evaluated, to describe attributes other than time-intensity profile.
Dilute citrate buffer was prepared in mineral water. […]
All micro-patched SP (MP-SP) were evaluated for sweetness intensity over time. The sensory panelists for the evaluation were screened for sensitivity for small differences in sweetness intensity and other basic tastes (saltiness, sourness, and bitterness), as well as sensory memory. These screening tests were performed according to ISO standards (IS 8586). The sensory expert panel was professionally trained and continuously assessed as to reproducibility and capability to differentiate between standard samples.
Sensory Method—Time Intensity (Measuring Sweetness Intensity Over Time): • 1. The products were tasted by an expert panel. • 2. Panelists were calibrated first with sugar solutions on a scale of 0-100 (magnitude estimation), while 0=not sweet at all. Calibration solutions used were 4% sucrose (defined as 50 sweetness) and 8% (defined as 100 sweetness grade). • 3. After calibration, the tasters preformed time-intensity evaluation for each sample according to the following stages: • a. After giving a signal, all tasters put the sample in their mouth, rolled it in their oral cavity for 2 seconds, and then swallowed. • b. After swallowing, the guide measured times, and at each time point, the taster was asked to grade the currently sensed sweetness intensity on the same scale (0-100) until the taste has disappeared. • c. The time periods examined were: 1, 2, 5, 7, 10, 15, 30, 45, 60, 90, 120, 150, 180, 210, 240, 270, and 300 seconds. • 4. Each panelist tasted a total of 6 products: SP standalone and four ratios of EGCG+SP tasted in varying orders. Sucrose solution (8Bx) was always tasted at the end. • 5. All the tested products were served using code numbers. • 6. Before and between samples, the tasters were requested to rinse their mouth with mineral water, eat an unsalted cracker and a cucumber, and drink water again. • 7. 11-15 tasters participated in these tests.

[2] = Meta-analysis of sensory panel meetings: four measures of lingering; format: in vivo, human; conditions: summary of Example 4
Experimental: The meta-analysis was based on 44 sensory panel meetings and 55 MP agents. Statistical analysis was conducted. Four measures of lingering were defined: • AUC—the area under the time-intensity curve from 60 seconds to 300 seconds. • I60/max—the ratio between the intensity recorded at 60 seconds and the maximum intensity recorded. • T50—the time in seconds at which intensity recorded was 50% of the maximal intensity recorded • T10—the time in seconds at which intensity recorded was 10% of the maximal intensity recorded
Each graph refers to a single parameter. The graphs show means and standard errors for the MP agents that show significant improvement compared to the control (DM09 alone). The standard errors are calculated according to all the data in the Meta analysis (including data that are not shown in the graph).
The mean for the protein without MP agents is colored black.

CC1(C)[C@@H](O[C@H]2O[C@H](C(=O)O)[C@@H](O)[C@H](O)[C@H]2O[C@@H]2O[C@H](C(=O)O)[C@@H](O)[C@H](O)[C@H]2O)CC[C@]2(C)[C@H]3C(=O)C=C4[C@@H]5C[C@@](C)(C(=O)O)CC[C@]5(C)CC[C@@]4(C)[C@]3(C)CC[C@@H]12.N [Mono Ammonium Glycyrrhizinate, monoammonium glycyrrhizinate, reference compound]
Sweetness profile over time (sweetness-intensity-vs.-time curve, lingering effect) ([1]; DM09 0.02 mg/ml, 8 Bx sugar equivalence level, vs DM09 alone): decreasing the lingering effect

OC[C@H]1O[C@@](CO)(O[C@H]2O[C@H](CO)[C@@H](O)[C@H](O)[C@H]2O)[C@@H](O)[C@@H]1O [sucrose, reference compound]
Typical linger of sugar ([1]; in vivo): ~60 s

epigallocatechin-3-gallate [EGCG, reference compound]
Sweetness profile over time (sweetness intensity) ([1]; EGCG with MNEI 0.08 mg/ml, 8 Bx, vs MNEI alone and sucrose, FIG. 1): significantly improved the sweetness profile of SP
Sweetness profile of DM09 (lingering effect) [2]: decreasing the lingering effect

B1: DM09: designer monellin, SEQ ID NO: 3; the sweet protein (SP) of Example 5 (protein)
chain: GNWEIIDIGPFTQNLGKFAVDEANKIGQYGRLTFNKVIRPCMKKTIYENEGFREIKGYEYQLYVRASDKLFRADISEDYKTRGRKLLRFNGPVPPP
Linger time (Delta time (in sec) from initial to 0 sweetness intensity) ([1]; DM09 0.02 mg/ml, 8 Bx sugar equivalence level, vs DM09 alone, P<0.05): significantly higher than the delta time of DM09:lactisole:tannic acid:ammonium Glycyrrhizinate
Linger time (Delta time (in sec) from initial to 0 sweetness intensity) ([1]; DM09 0.02 mg/ml, 8 Bx sugar equivalence level, vs DM09 alone, P<0.05, listed as DM09 only): significantly higher than the delta time of Quillija:DM09 (26:1)
Linger (sweetness-intensity-vs.-time curve) ([1]; sweet protein with gymnemic acids and/or maltodextrin, FIG. 15): longest linger time

B2: MNEI: single chain Monellin (MNEI) reference protein, SEQ ID NO: 28 (protein)
chain: GEWEIIDIGPFTQNLGKFAVDEENKIGQYGRLTFNKVIRPCMKKTIYENEGFREIKGYEYQLYVYASDKLFRADISEDYKTRGRKLLRFNGPVPPP
Linger (AUC of the sweetness-intensity vs. time, 60-150 seconds) ([1]; MNEI, 8 Bx, P<0.05, FIG. 2): significantly higher than the AUC of EGCG:MNEI (60:1)
